In assay [1] the target is RSV L+P RdRp (Human respiratory syncytial virus A, UniProt P28887). The experiment in a line: Biotinylated primer extension Flashplate assay, recombinant RSV L+P. The assay is classed as biochemical, Human RSV (strain A2). On the procedure:
RNA polymerase reaction samples consisted of recombinant RSV L-P polymerase (3 nM) in a buffer containing Tris pH 7.5 (20 mM), KCl (10 mM), dithiothreitol (2 mM), Triton (0.01%), DMSO (10% v/v) with compound at appropriate dilution (10 points 1:5-fold serial dilution starting at 1 µM), and MgCl2 (6 mM). Reactions were started at 30 °C by adding an oligonucleotide template sequence derived from the RSV leader promoter (5’-[…]-3’, 0.2 μM) together with a biotinylated primer (5’-bi-ACGC, 4 μM) mixed with GTP (10 µM), ATP (10 µM) and [α-^33P]CTP (0.025 µM, 3000 Ci/mmol) in a final volume of 10 μL. Reactions were stopped after 120 min by the addition of 90 µl EDTA (0.1 M). Samples were transferred to Flashplates and left 1 h at room temperature for incubation before being washed twice with 0.1% Tween 20, sealed (Topseal) and read on a Wallac MicroBeta TriLux Liquid Scintillation Counter.

Assay [2] has as its target RSV L+P complex (Human respiratory syncytial virus A, UniProt P28887). The experiment in a line: Surface plasmon resonance assay. The assay is classed as binding, Human RSV (strain A2). Conditions: SPR, 37°C. (In general: Surface plasmon resonance follows binding to a sensor surface in real time, without labels.)

As a reminder, the IC50 is the midpoint of a concentration-inhibition curve. As usually defined, the inhibition is how much of the control response was suppressed. As a reminder, the % inhibition is how much of the control response was suppressed.

Several values for one entry are separate records, joined by “and”; a condition that tells them apart may be missing. Identical values can stand only once. Like-named read-outs stand apart in the source and are kept apart here.

Sequence of RSV L+P RdRp (P03421 whole entry): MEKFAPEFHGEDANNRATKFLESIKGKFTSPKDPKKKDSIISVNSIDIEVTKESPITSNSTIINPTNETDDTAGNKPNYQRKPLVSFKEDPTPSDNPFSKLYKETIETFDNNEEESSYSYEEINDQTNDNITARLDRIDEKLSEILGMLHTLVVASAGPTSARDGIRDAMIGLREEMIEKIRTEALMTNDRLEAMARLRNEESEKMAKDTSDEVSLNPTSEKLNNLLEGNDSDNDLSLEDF
Sequence of RSV L+P RdRp (P28887 whole entry): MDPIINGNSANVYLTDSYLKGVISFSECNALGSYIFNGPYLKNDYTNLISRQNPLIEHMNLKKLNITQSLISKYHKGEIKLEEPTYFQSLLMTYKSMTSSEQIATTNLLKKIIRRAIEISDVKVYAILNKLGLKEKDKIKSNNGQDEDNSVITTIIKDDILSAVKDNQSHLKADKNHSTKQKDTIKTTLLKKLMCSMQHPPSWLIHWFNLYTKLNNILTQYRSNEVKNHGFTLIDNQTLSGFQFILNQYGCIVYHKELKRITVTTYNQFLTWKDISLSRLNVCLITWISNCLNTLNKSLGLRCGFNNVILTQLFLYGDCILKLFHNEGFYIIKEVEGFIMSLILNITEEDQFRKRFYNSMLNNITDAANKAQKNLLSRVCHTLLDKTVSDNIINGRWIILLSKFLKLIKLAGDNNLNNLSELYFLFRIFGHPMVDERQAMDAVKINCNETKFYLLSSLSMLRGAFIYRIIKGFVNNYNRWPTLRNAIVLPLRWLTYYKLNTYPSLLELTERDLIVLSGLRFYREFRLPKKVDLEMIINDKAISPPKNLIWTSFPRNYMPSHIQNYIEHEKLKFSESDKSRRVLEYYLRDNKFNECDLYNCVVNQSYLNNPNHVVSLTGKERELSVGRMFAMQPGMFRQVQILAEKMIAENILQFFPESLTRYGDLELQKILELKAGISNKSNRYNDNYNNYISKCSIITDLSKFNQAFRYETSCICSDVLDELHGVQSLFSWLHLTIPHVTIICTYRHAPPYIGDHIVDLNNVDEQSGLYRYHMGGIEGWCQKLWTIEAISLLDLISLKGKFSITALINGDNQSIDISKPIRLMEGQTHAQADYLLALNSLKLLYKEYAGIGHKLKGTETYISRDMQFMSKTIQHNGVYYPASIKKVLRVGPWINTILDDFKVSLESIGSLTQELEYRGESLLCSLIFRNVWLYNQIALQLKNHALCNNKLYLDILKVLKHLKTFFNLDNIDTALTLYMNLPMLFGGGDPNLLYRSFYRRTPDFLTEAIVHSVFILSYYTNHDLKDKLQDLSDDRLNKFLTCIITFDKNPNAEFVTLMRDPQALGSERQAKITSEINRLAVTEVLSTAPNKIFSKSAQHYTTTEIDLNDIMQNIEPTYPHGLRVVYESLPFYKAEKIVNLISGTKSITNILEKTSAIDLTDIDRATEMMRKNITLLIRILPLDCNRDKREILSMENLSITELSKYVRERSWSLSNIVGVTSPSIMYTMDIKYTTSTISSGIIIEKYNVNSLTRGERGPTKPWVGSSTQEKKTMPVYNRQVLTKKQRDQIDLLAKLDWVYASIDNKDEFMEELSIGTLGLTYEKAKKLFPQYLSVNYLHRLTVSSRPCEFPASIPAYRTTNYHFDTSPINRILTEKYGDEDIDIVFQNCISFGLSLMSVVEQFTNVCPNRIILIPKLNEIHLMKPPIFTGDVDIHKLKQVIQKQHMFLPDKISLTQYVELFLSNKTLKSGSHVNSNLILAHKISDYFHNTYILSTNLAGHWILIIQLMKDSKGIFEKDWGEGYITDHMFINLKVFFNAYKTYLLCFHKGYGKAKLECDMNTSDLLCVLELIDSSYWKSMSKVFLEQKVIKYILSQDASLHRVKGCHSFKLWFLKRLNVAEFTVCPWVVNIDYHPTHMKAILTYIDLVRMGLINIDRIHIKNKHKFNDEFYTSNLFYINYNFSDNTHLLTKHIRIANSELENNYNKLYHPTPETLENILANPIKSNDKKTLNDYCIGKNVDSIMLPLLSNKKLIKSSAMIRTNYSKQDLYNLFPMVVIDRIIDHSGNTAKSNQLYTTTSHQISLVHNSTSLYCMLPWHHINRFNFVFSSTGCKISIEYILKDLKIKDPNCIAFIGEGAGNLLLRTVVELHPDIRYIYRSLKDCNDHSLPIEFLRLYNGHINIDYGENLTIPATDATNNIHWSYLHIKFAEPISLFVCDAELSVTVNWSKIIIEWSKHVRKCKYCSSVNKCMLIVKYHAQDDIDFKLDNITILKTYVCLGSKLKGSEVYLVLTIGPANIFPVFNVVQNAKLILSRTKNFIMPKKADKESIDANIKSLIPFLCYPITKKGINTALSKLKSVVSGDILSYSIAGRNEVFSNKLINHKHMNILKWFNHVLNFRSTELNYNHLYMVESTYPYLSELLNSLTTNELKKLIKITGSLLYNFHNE
Sequence of RSV L+P complex (P03421 whole entry): as the sequence (P03421 whole entry) above
Sequence of RSV L+P complex (P28887 whole entry): as the sequence (P28887 whole entry) above

For the molecule `COc1cc(C(=O)NC[C@](O)(c2cc(C(C)(C)O)c(F)c(-c3ccc(F)cc3)n2)C(F)(F)F)cc2cc(C)nnc12` [JNJ-8003], the IC50 is 0.73 nM in assay [1] (RSV L+P RdRp primer extension, n 18, read-out: Median IC50) and 0.67 nM in assay [1] (RdRp activity, Flashplate (Fig. 1c), read-out: IC50). Besides, the inhibition at 0.00032 µM in assay [1] ([JNJ-8003] 0.00032 uM, replicates 1-4) turned out to be 28.6%. Also, the “% inhibition” value in assay [1] ([JNJ-8003] 0.00032 uM, replicates 1-4, 0.00032 µM) is 26.2934% and 27.7635% and 40.6870%; in assay [1] ([JNJ-8003] 0.0016 uM, replicates 1-4, 0.0016 µM) it was 60.6805% and 64.1654% and 73.5323%; in assay [1] ([JNJ-8003] 0.008 uM, replicates 1-4, 0.008 µM) it was 89.6905% and 92.3440% and 94.9354%; in assay [1] ([JNJ-8003] 0.04 uM, replicates 1-4, 0.04 µM), 96.5839% and 97.2066% and 98.2976%; in assay [1] ([JNJ-8003] 0.2 uM, replicates 1-4, 0.2 µM), 96.5743% and 98.0014% and 97.9026%. In addition, the inhibition at 0.0016 µM in assay [1] ([JNJ-8003] 0.0016 uM, replicates 1-4) turned out to be 55.8%. Moreover, the inhibition at 0.008 µM in assay [1] ([JNJ-8003] 0.008 uM, replicates 1-4) is 81.4%. Moreover, the inhibition at 0.04 µM in assay [1] ([JNJ-8003] 0.04 uM, replicates 1-4) is 93%. The inhibition at 0.2 µM in assay [1] ([JNJ-8003] 0.2 uM, replicates 1-4) worked out at 95.2%. This molecule also returned an off-rate in assay [2] of 0.0000181 s⁻¹. This molecule had an on-rate in assay [2] of 2.16 µM⁻¹ s⁻¹.
